Experimental data taken from ChEMBL document CHEMBL2163248, “Classification of inhibitors of hepatic organic anion transporting polypeptides (OATPs): influence of protein expression on drug-drug interactions” (J Med Chem, 2012).

How the values were obtained:
[1] = molecular target: T1, Solute carrier organic anion transporter family member 2B1 (Homo sapiens, UniProt O94956); experiment: Inhibition of human liver OATP2B1 expressed in HEK293 Flp-In cells assessed as reduction in [3H]E3S uptake at 20 uM incubated for 5 mins by scintillation counting; details: hek293, 5 min
T1 sequence (O94956 whole entry): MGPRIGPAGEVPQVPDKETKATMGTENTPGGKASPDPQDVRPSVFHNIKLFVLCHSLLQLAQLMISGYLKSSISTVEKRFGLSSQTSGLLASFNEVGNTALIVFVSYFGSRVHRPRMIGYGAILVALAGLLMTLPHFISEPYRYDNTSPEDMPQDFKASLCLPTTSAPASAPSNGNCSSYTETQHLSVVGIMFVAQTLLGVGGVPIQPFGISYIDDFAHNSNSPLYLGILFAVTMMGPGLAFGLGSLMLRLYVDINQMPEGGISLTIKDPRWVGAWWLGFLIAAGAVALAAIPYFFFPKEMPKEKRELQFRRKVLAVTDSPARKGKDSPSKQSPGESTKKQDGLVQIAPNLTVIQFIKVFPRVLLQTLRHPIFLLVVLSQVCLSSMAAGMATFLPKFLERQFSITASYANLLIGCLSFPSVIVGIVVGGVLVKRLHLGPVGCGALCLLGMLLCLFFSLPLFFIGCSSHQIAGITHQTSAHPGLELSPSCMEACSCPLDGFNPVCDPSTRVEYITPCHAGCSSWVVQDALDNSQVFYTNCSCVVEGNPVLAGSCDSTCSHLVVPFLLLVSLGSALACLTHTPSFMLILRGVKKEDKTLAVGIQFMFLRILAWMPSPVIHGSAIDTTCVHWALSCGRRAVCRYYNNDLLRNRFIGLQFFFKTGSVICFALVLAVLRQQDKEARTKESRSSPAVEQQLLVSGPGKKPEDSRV

[2] = molecular target: T2, OATP1B1 (Homo sapiens, UniProt Q9Y6L6); experiment: (§1) Inhibition of human liver OATP1B1 expressed in HEK293 Flp-In cells assessed as reduction in E17-betaG uptake at 20 uM by scintillation counting
T2 sequence (Q9Y6L6 whole entry): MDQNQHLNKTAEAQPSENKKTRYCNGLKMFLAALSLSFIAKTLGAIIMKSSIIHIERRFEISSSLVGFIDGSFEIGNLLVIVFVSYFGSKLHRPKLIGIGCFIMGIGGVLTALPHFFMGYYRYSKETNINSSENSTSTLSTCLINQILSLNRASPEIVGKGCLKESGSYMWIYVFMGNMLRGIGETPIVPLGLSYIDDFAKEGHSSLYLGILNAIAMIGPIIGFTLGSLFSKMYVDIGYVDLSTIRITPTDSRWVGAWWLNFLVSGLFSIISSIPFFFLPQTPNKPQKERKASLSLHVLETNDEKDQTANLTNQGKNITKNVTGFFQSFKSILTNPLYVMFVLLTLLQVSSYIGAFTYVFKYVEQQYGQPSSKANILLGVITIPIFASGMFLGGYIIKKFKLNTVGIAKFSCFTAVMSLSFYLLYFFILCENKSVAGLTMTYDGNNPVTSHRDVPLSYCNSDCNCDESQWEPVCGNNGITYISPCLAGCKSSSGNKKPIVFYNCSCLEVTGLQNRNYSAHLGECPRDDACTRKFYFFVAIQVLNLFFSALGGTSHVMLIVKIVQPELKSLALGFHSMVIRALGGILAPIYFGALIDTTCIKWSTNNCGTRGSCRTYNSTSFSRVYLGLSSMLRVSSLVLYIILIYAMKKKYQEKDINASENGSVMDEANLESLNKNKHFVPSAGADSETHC

[3] = molecular target: T3, Solute carrier organic anion transporter family member 1B3 (Homo sapiens, UniProt Q9NPD5); experiment: Inhibition of human liver OATP1B3 expressed in HEK293 Flp-In cells assessed as reduction in [3H]E17-betaG uptake at 20 uM incubated for 5 mins by scintillation counting; details: hek293, 5 min
T3 sequence (Q9NPD5 whole entry): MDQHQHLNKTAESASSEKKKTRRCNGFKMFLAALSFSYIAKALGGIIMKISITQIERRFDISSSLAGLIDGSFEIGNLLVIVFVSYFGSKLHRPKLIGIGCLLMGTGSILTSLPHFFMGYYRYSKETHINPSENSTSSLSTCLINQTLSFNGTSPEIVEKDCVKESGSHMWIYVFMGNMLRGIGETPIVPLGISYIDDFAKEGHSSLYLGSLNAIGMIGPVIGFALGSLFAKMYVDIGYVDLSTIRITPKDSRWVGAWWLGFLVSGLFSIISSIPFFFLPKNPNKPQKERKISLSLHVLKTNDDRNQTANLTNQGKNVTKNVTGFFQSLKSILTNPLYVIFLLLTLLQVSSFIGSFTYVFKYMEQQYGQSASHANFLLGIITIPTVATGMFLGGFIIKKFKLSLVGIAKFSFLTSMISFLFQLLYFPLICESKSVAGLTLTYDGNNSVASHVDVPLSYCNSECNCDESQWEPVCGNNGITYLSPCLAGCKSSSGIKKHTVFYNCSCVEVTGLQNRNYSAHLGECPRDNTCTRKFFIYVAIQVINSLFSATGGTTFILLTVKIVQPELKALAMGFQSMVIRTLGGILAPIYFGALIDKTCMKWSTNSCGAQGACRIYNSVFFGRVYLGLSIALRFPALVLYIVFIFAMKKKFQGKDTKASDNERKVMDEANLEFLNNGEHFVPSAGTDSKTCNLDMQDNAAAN

[4] = molecular target: T4, Solute carrier organic anion transporter family member 1B1 (Homo sapiens, UniProt Q9Y6L6); experiment: as §1; details: hek293, 20 µM
T4 sequence (Q9Y6L6 whole entry): T2 sequence (Q9Y6L6 whole entry)

[5] = HEK293 Flp-In cells expressing OATP1B1, probe E17-betaG

**Q.** `CCCc1nc(C(C)(C)O)c(C(=O)OCc2oc(=O)oc2C)n1Cc1ccc(-c2ccccc2-c2nnn[nH]2)cc1` [OLMESARTAN MEDOXOMIL] was tested. Which INH [1] did it give?
**A.** -7.9%

**Q.** What about the inhibition at 20 µM [2, 5] of the same compound?
**A.** 60.4%

**Q.** Which INH [1] does the source give for `CC(=O)Oc1ccc2c(c1)Oc1cc(OC(C)=O)ccc1C21OC(=O)c2cc(C(=O)O)ccc21` here?
**A.** -24.9%

**Q.** And the INH [3]?
**A.** 71.1%

**Q.** And the inhibition at 20 µM [2, 5]?
**A.** 70.7%

**Q.** Which results are given for `COc1ccc2c(c[n+](C)c3c4cc5c(cc4ccc23)OCO5)c1OC` [CHELERYTHRINE]?
**A.** INH [1]: 13.1%; INH [3]: 24.9%; inhibition at 20 µM [2, 5]: -0.7%

**Q.** With `Cc1ccc(-c2cc(C(F)(F)F)nn2-c2ccc(S(N)(=O)=O)cc2)cc1` [CELECOXIB] as the compound, how does the INH [1] read?
**A.** -69%

**Q.** And the INH [3]?
**A.** 22.3%

**Q.** What about the inhibition at 20 µM ([2]; hek293) of the same compound?
**A.** -3.3%

**Q.** For `CSCC[C@H](NC(=O)[C@H](Cc1ccc(OS(=O)(=O)O)cc1)NC(=O)[C@@H](N)CC(=O)O)C(=O)NCC(=O)N[C@@H](Cc1c[nH]c2ccccc12)C(=O)N[C@@H](CCSC)C(=O)N[C@@H](CC(=O)O)C(=O)N[C@@H](Cc1ccccc1)C(N)=O` [SINCALIDE], which INH [1] is on record?
**A.** 60.1%

**Q.** What about the INH [3] of the same compound?
**A.** 96.9%

**Q.** And the inhibition at 20 µM [2, 5]?
**A.** 89.3%

**Q.** `C[n+]1cc2c3c(ccc2c2ccc4cc5c(cc4c21)OCO5)OCO3` was tested. Which INH [1] did it give?
**A.** 15%

**Q.** And the INH [3]?
**A.** 2.9%

**Q.** And the inhibition at 20 µM [2, 5]?
**A.** -0.2%

**Q.** For `Cc1nccn1CC1CCc2c(c3ccccc3n2C)C1=O` (stereo not given) [ONDANSETRON], which INH [1] is on record?
**A.** -8.7%

**Q.** And the INH [3]?
**A.** -3.6%

**Q.** What about the inhibition at 20 µM [2, 5] of the same compound?
**A.** 4.8%

**Q.** For `CN(C)C(=O)C(CCN1CCC(O)(c2ccc(Cl)cc2)CC1)(c1ccccc1)c1ccccc1` [LOPERAMIDE], which INH [1] is on record?
**A.** 19.6%

**Q.** And the INH [3]?
**A.** 32.4%

**Q.** And the INH [4]?
**A.** 32.5%

**Q.** Which INH [1] does the source give for `COCc1c(C(C)C)nc(C(C)C)c(/C=C/[C@@H](O)C[C@@H](O)CC(=O)O)c1-c1ccc(F)cc1` [CERIVASTATIN] here?
**A.** 40.1%

**Q.** And the INH [3]?
**A.** 68.1%

**Q.** What about the INH [4] of the same compound?
**A.** 73.6%

**Q.** Which results are given for `Nc1nc2c(ncn2COCCO)c(=O)[nH]1` [ACYCLOVIR]?
**A.** INH [1]: -15.2%; INH [3]: -2%; INH [4]: 2.3%

**Q.** How did the INH [1] turn out when `CCc1cccc2cc(C(O)CNC(C)(C)C)oc12` (stereo not given) [BUFURALOL] was run?
**A.** -7%

**Q.** And the INH [3]?
**A.** 23.8%

**Q.** What about the INH [4] of the same compound?
**A.** -13.9%

**Q.** What does the source list for `CCC1(c2ccccc2)C(=O)NC(=O)NC1=O` [PHENOBARBITAL]?
**A.** INH [1]: 11%; INH [3]: 7.3%; INH [4]: -3.9%

**Q.** What does the source list for `CSc1ccc2c(c1)N(CCC1CCCCN1C)c1ccccc1S2` (stereo not given) [THIORIDAZINE]?
**A.** INH [1]: 21.5%; INH [3]: 25.2%; INH [4]: 26.1%

**Q.** How did the INH [1] turn out when `Cn1c(=O)c2c(ncn2C)n(C)c1=O` [CAFFEINE] was run?
**A.** 3.2%

**Q.** What about the INH [3] of the same compound?
**A.** 22.1%

**Q.** What about the INH [4] of the same compound?
**A.** -1.8%

**Q.** What does the source list for `CC(NCCC(c1ccccc1)c1ccccc1)c1ccccc1` (stereo not given) [FENDILINE]?
**A.** INH [1]: -118.7%; INH [3]: 20.4%; INH [4]: 15%

**Q.** For `CC(C)Cc1ccc(C(C)C(=O)O)cc1` (stereo not given) [IBUPROFEN], which INH [1] is on record?
**A.** 13.5%

**Q.** And the INH [3]?
**A.** -6.6%

**Q.** What about the INH [4] of the same compound?
**A.** 47.3%

**Q.** What does the source list for `C[C@]12CC[C@@H]3c4ccc(OS(=O)(=O)O)cc4CC[C@H]3[C@@H]1CCC2=O` [ESTRONE SULFURIC ACID]?
**A.** INH [1]: 20.8%; INH [3]: 10.1%; INH [4]: 98.1%

**Q.** For `Oc1ncnc2[nH]ncc12` [ALLOPURINOL], which INH [1] is on record?
**A.** 8.4%

**Q.** What about the INH [3] of the same compound?
**A.** 10.8%

**Q.** What about the INH [4] of the same compound?
**A.** -35.6%

**Q.** For `O=C1[C@H](CC[C@H](O)c2ccc(F)cc2)[C@@H](c2ccc(O)cc2)N1c1ccc(F)cc1` [EZETIMIBE], which INH [1] is on record?
**A.** -8.9%

**Q.** What about the INH [3] of the same compound?
**A.** 1.5%

**Q.** What about the INH [4] of the same compound?
**A.** 55.5%

**Q.** Which results are given for `Cc1ncc2n1-c1ccc(Cl)cc1C(c1ccccc1F)=NC2` [MIDAZOLAM]?
**A.** INH [1]: 22.7%; INH [3]: 6.7%; INH [4]: 32.9%

**Q.** Which results are given for `CC(C)CN(C[C@@H](O)[C@H](Cc1ccccc1)NC(=O)O[C@H]1CCOC1)S(=O)(=O)c1ccc(N)cc1`?
**A.** INH [1]: -3.4%; INH [3]: 16.3%; INH [4]: 79.3%

**Q.** What does the source list for `CC(C)NCC(O)c1ccc(NS(C)(=O)=O)cc1` (stereo not given) [SOTALOL]?
**A.** INH [1]: 19%; INH [3]: 6.6%; INH [4]: 46.4%
